Measurements from PubChem BioAssay (NCI).
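Step 1: Grow cells in 96-well plates. Step 2: Expose to compound for 48 hours at 5 concentrations. Step 3: Interpolate endpoints linearly; if unreached, use highest concentration. GI50 marks 50% less growth. At the TGI there is no net growth.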

How the values were obtained:
Test in all cases: growth of human tumour cells (NCI), 48 h
NCI-H522 lung = tested on: NCI-H522 lung
MOLT-4 leukemia = tested on: MOLT-4 leukemia
NCI-H23 lung = tested on: NCI-H23 lung
SK-MEL-5 melanoma = tested on: SK-MEL-5 melanoma
KM12 colon = tested on: KM12 colon
COLO 205 colon = tested on: COLO 205 colon
UACC-62 melanoma = tested on: UACC-62 melanoma
HL-60(TB) leukemia = tested on: HL-60(TB) leukemia
T-47D breast = tested on: T-47D breast
ACHN renal = tested on: ACHN renal

Compound	TGI (NCI-H522 lung)	TGI (MOLT-4 leukemia)	TGI (NCI-H23 lung)	TGI (SK-MEL-5 melanoma)	TGI (KM12 colon)	TGI (COLO 205 colon)	TGI (UACC-62 melanoma)	TGI (HL-60(TB) leukemia)	TGI (T-47D breast)	TGI (ACHN renal)	GI50 (NCI-H522 lung)	GI50 (T-47D breast)	GI50 (NCI-H23 lung)	GI50 (SK-MEL-5 melanoma)	GI50 (KM12 colon)	GI50 (COLO 205 colon)	GI50 (UACC-62 melanoma)	GI50 (ACHN renal)	GI50 (MOLT-4 leukemia)	GI50 (HL-60(TB) leukemia)
O=C1C2C3C=C4c5ccccc5N(c5ccccc5)C4(C2C(=O)N1c1ccc(Br)cc1)[C@H]1C(=O)N(c2ccc(Br)cc2)C(=O)[C@@H]31 (stereo partly specified)	> 100 µM	> 100 µM	> 100 µM	> 100 µM	> 100 µM	> 100 µM	> 100 µM	> 100 µM												
CC12CCC3c4cc(Br)c(O)c(Br)c4CCC3C1CCC2O (stereo unspecified)		42.2 µM			26.6 µM	70.1 µM	33.1 µM	66.6 µM	83.8 µM	73.7 µM										
CCCCCCCCCCCCCC(=O)CSCCNC(=O)CCNC(=O)[C@@H](O)C(C)(C)COP(=O)(O)OP(=O)(O)OCC1OC(n2cnc3c(N)ncnc32)C(O)C1OP(=O)(O)O (stereo partly specified)	25.5 µM		42 µM	34.5 µM	39 µM	29.4 µM	29.5 µM	51.4 µM		38 µM										
Cn1c(=O)c2[nH]cnc2n(CC(N)=O)c1=O	> 100 µM	> 100 µM	> 100 µM	> 100 µM	> 100 µM	> 100 µM	> 100 µM			> 100 µM										
CNS(=O)(=O)OCC1OC(n2cnc3c(N)ncnc32)C(O)C1O (stereo unspecified)	> 100 µM		> 100 µM	> 100 µM	> 100 µM	> 100 µM	> 100 µM		> 100 µM	> 100 µM	> 100 µM	> 100 µM	> 100 µM	> 100 µM	> 100 µM	> 100 µM	> 100 µM	> 100 µM		
O=C1c2ccccc2C(=O)c2c(NCC3CO3)ccc(NCC3CO3)c21 (stereo unspecified)	20.1 µM	0.53 µM	8.71 µM	6.44 µM	19.4 µM	29.9 µM			> 42.1 µM	2.62 µM										
O=C(C[P+](c1ccccc1)(c1ccccc1)c1ccccc1)C[P+](c1ccccc1)(c1ccccc1)c1ccccc1	0.325 µM	4.08 µM	0.888 µM	1.8 µM	2.63 µM	1.51 µM	0.865 µM	2.57 µM		0.393 µM	0.141 µM		0.253 µM	0.625 µM	1.13 µM	0.398 µM	0.256 µM	0.144 µM	0.292 µM	0.256 µM
CN(C)CCNC(=O)c1cccc2ccc(-c3ccc(-c4ccccc4)cc3)nc12	4.33 µM	5.16 µM	16.6 µM	3.1 µM	5.6 µM	3 µM	32.2 µM	4.23 µM		12.8 µM										
COC(=O)/C=c1\s/c(=C\C(=O)OC)c2ccccc12	> 100 µM	> 100 µM	> 100 µM	> 100 µM	> 100 µM	> 100 µM	> 100 µM	> 100 µM		> 100 µM										
Cc1ccc(C)c(NC(=O)CC2SC(=Nc3ccccc3Cl)NC2=O)c1 (stereo unspecified)	96.5 µM	> 100 µM	> 100 µM	> 100 µM	> 100 µM	> 100 µM	> 100 µM	> 100 µM		> 100 µM										
CCN(CC)CCn1[nH]c2c3ccc(=O)cc3sc3c(NCCN)ccc1c32		0.383 µM		2.91 µM	2.75 µM		1.48 µM			2.54 µM										
CCCCCCCC(=O)OCC(=O)[C@]1(O)Cc2c(O)c3c(c(O)c2[C@@H](OC2CC(N)C(O)C(C)O2)C1)C(=O)c1c(OC)cccc1C3=O (stereo partly specified)			0.526 µM	0.185 µM	0.758 µM	0.778 µM	0.494 µM	0.221 µM	1.2 µM			0.0512 µM	0.0552 µM	0.0427 µM	0.188 µM	0.0812 µM	0.033 µM			0.0263 µM
O=C(/C=C/C12c3ccccc3C(c3ccccc31)C1C(=O)NC(=O)C12)c1ccc(Cl)cc1 (stereo unspecified)	3.3 µM	15.5 µM	3.83 µM	3.08 µM	5.44 µM	3.77 µM	2.77 µM	8.86 µM		3.02 µM	1.46 µM		1.78 µM	1.7 µM	2.14 µM	1.91 µM	1.4 µM	1.65 µM	1.7 µM	1.47 µM
O=C(c1ccccc1)n1c(-c2ccccc2)cs/c1=N\S(=O)(=O)c1ccc(N2N=C3c4ccccc4CC3C2c2cccs2)cc1 (stereo unspecified)	> 100 µM	21.2 µM	39.4 µM	> 100 µM	> 100 µM	> 100 µM	87.2 µM		> 100 µM	> 100 µM	32.7 µM	> 100 µM	13 µM	24.4 µM	38.3 µM	98.1 µM	27.3 µM	43.8 µM	0.305 µM	
C=CCOC(=O)C1CCC(=O)N1C(=O)C(Cl)Cl (stereo unspecified)	> 100 µM	> 100 µM	> 100 µM	> 100 µM	> 100 µM	> 100 µM	> 100 µM	> 100 µM		> 100 µM										
CCN1C[C@]2(COC)[C@H](O)C[C@H](OC)[C@]34C1[C@H]([C@H](OC)[C@H]23)[C@]1(OC(C)=O)[C@H]2[C@@H](OC(=O)c3ccccc3)[C@](O)(C[C@H]24)[C@@H](OC)[C@@H]1O	> 100 µM		> 100 µM	> 100 µM	> 100 µM	> 100 µM	> 100 µM	> 100 µM	> 100 µM	> 100 µM										
N#Cc1ccc2cc3c(cc2c1)OCO3	> 100 µM	> 100 µM	> 100 µM		> 100 µM	> 100 µM	> 100 µM	> 100 µM		> 100 µM										
COC1C2c3cc4c(cc3CC(C#N)(c3ccccc32)N1C(=O)c1ccccc1)OCO4 (stereo unspecified)	> 100 µM	> 100 µM	> 100 µM	> 100 µM	> 100 µM	> 100 µM	> 100 µM	> 100 µM		> 100 µM										
O=C(CCc1nnc2s/c(=C\c3ccccc3Cl)c(=O)n12)Nc1cc(Cl)ccc1Cl	> 100 µM	> 100 µM	> 100 µM	> 100 µM	> 100 µM		> 100 µM	> 100 µM		> 100 µM										
CN(/N=C/c1cccc2cccnc12)c1c([N+](=O)[O-])cc([N+](=O)[O-])cc1[N+](=O)[O-]		> 100 µM	> 100 µM	> 100 µM	> 100 µM	> 100 µM	> 100 µM	> 100 µM		> 100 µM										
